Values after ≈ are worked out from the molar mass of the structure shown.
Details: for aqueous solubility: pH 6.8

SMILES	MDR1-MDCK efflux ratio	intrinsic clearance, human liver microsomes [mL/min/kg]	intrinsic clearance, rat liver microsomes [mL/min/kg]	aqueous solubility [µg/mL]	fraction unbound, human plasma	fraction unbound, rat plasma
O=C(Nc1cncc2ccccc12)c1ncccn1	0.676	37.6	14.3			
Cc1nc2ccccn2c1CC(=O)NCCCSc1ccccc1	26.2	77.8	1260	42.3 (≈ 125 µM)		
Cc1cccc(NC(=O)c2ccc3ccccc3c2)n1	0.126	91.8	209	1.17 (≈ 4.46 µM)		
O=c1c2cc(OCc3ccc(Cl)cc3)ccc2nc2n1CCCCC2	0.969			0.38 (≈ 1.07 µM)		
Cc1nn(C(F)F)c(C)c1CC(=O)NCCNC(C)(C)C	20.6	≤ 4.74	253			
COc1ccccc1C(=O)Nc1cccc(C#N)c1	0.246	85.5	80.9	33 (≈ 131 µM)		
O=C(c1ccco1)N1CCCC(C(=O)N2CCc3ccccc3C2)C1 (configuration not stated)				69.8 (≈ 206 µM)		
O=C(Nc1cccnc1)c1ccccc1Cc1ccccc1	0.612	33.9	461	70.5 (≈ 245 µM)		
COc1cc(OC)c(OC)cc1CNc1ccc(N2CCOCC2)c(C(=O)O)c1	28	≤ 4.74	≤ 10.7	29.2 (≈ 72.6 µM)		
O=C(CSc1ccc2c(c1)OCCO2)NC1CCCC1	0.73	83.8	5820			
CCn1c(=O)c2c(nc3n2CCN3c2cc(C)cc(C)c2)n(C)c1=O				0.5 (≈ 1.47 µM)		
Cn1nc(N)c2ccc(Br)cc21	0.72	24	94.8			
CC(C(=O)N1CCc2sccc2C1)N1CCCN(c2ccccc2C#N)CC1 (configuration not stated)	0.871	2130	4230	25.6 (≈ 64.9 µM)		
Cc1ccc(S(=O)(=O)N2CCCc3ccc(NS(=O)(=O)c4cc(F)ccc4F)cc32)cc1		244	2260			
Cn1cc(C#N)cc1-c1nc(C2CC2)nn1CCc1ccccc1	0.932	184	1870	49.2 (≈ 155 µM)		
CS(=O)(=O)Cc1ccn(-c2ccccc2)n1	0.661	≤ 4.74	≤ 10.7	32.2 (≈ 136 µM)		
O=C1CN(C(=O)c2ccc(F)cc2)CCN1	2.27	≤ 4.74	≤ 10.7	47 (≈ 212 µM)		
N#CC1(C(=O)N2CCN(Cc3ccccn3)CC2)CCCCC1	1.11	10.7	805	52.1 (≈ 167 µM)		
Cn1cnnc1-c1cccc(NS(=O)(=O)c2ccc3c(c2)OCCCO3)c1	79.6	56.6	180			
Cc1ccc(CNC(=O)c2cccs2)cn1	0.842	≤ 4.74	≤ 10.7	52.3 (≈ 225 µM)		

SMILES	MDR1-MDCK efflux ratio	intrinsic clearance, human liver microsomes [mL/min/kg]	intrinsic clearance, rat liver microsomes [mL/min/kg]	aqueous solubility [µg/mL]	fraction unbound, human plasma	fraction unbound, rat plasma
CC(C)(C)NC(=O)NCCn1nc2c(cc1=O)CCCC2	67	12.1	105	47.5 (≈ 162 µM)		
CC(C)(C)NC(=O)c1cnc(-c2ccc(Cl)s2)s1	0.494	41.6	167	1.1 (≈ 3.66 µM)		
CN(C)c1ccnc(C(=O)Nc2ccnn2-c2ccc(C#N)cc2)c1		75.2	446			
O=c1[nH]c2ccccc2n1C1CCN(Cc2csc(COc3ccc(F)cc3)n2)CC1		209	1090			
CC(C)(C)OC(=O)c1ccc(-n2[nH]cc(-n3ccnn3)c2=O)nc1	1.19	≤ 4.74	20.7			
Cc1ccc(-c2ccnc(N3C[C@@H](C)NC[C@@H]3C)n2)c(C)n1	25.7	≤ 4.74	78.7	25.9 (≈ 87.2 µM)		
Cc1c(O)cccc1OCCN1CCOCC1		≤ 4.74	53.7			
Cc1cc(NCc2ccnc(N3CCCC3)c2)c2ccccc2n1	17	23.8	5470	32.2 (≈ 101 µM)		
Cc1cccc2cc(C(=O)NCCCn3nnc4ccccc43)n(C)c12	0.886	325	1410			
CC(C)NC(=O)CN(C#N)c1ccccc1		≤ 4.74	≤ 10.7			
CCN(C/C=C\c1ccc(C2CCCCC2)c(Cl)c1)C1CCCCC1		47.5	591	6.6 (≈ 18.3 µM)	0.0014	0.00541
CCCn1ncc(CN2CCC(c3ncc[nH]3)CC2)c1C		7.33	498			
COc1ccccc1/C=C/CN1CCCC2(C1)OCCO2	0.549	17.7	2180			
CC(C)(C)c1cc(NC(=O)c2cccc3cn[nH]c23)[nH]n1	1.55	9.85	176	1.78 (≈ 6.28 µM)		
CC(C)(C)c1ccc(CN2CCC(C(N)=O)CC2)cc1	0.975	≤ 4.74	144	47.8 (≈ 174 µM)		
Brc1cc2c(cc1Cn1cncn1)OCCCO2	0.566	7.7	228	34.4 (≈ 111 µM)		
Cc1ccc2cc(C(=O)N(C)CCC#N)[nH]c2c1		61.8	122	4 (≈ 16.6 µM)		
Cc1noc(C2CCN(CC(N)=O)CC2)n1		9.99	29.7	30.8 (≈ 137 µM)		
CCn1cc(CN2CCC(c3nc(N(C)C)ncc3-c3ccc(OC)cc3)CC2)c(C)n1	13.3	158	473	54 (≈ 124 µM)		
CN(C)[C@@H]1CN(C(=O)c2cc3ccc(F)cc3[nH]2)C[C@H]1O	4.4	≤ 4.74	121	55.1 (≈ 189 µM)		

SMILES	MDR1-MDCK efflux ratio	intrinsic clearance, human liver microsomes [mL/min/kg]	intrinsic clearance, rat liver microsomes [mL/min/kg]	aqueous solubility [µg/mL]	fraction unbound, human plasma	fraction unbound, rat plasma
NCCN1CCN(C/C=C/C(=O)N2CCC[C@@H](n3nc(-c4ccc(Oc5ccccc5)cc4)c4c(N)ncnc43)C2)CC1		9.07	49.8	30.2 (≈ 51.9 µM)	0.0501	0.0486
O=C(Cc1ccccc1F)N1CCN(c2nccn3nc4c(c23)CCCC4)CC1	0.961	132	784	56.1 (≈ 143 µM)		
O=C(Nc1nc2ccccc2[nH]1)C1CCCCC1	0.721	15.5	189	2.44 (≈ 10 µM)		
CC(Sc1nc2c(cnn2-c2ccccc2)c(=O)[nH]1)C(N)=O (configuration not stated)				2.15 (≈ 6.82 µM)		
O=C(NCCc1cccc2cccnc12)C1CCCCC1		158	906	41.7 (≈ 148 µM)		
Cc1ccc(C(=O)C2CCN(CC(=O)NC(=O)Nc3ccccc3)CC2)c(C)c1	0.559	64.3	936			
Cc1noc(C)c1CC(=O)N1CCc2[nH]c3ccc(Br)cc3c2C1	5.07	166	497	1.29 (≈ 3.32 µM)		
Cc1ccc(NC(=O)CN2CCCN(c3ccc(C(F)(F)F)cn3)CC2)cc1	0.857	126	602	12.9 (≈ 33 µM)		
CONC(=O)c1c2c(nc3ccccc13)CCC2		≤ 4.74	≤ 10.7			
Cn1nc(CNC(=O)C2CCC2)c2ccccc21	0.662	12.5	147			
O=C(COc1ncnc2ccccc12)NC12CC3CC(CC(C3)C1)C2	1.2	62.2	468	60.3 (≈ 179 µM)		
Nc1ncccc1OCc1cccc(Cl)c1		157	721			
CC(C)c1ccccc1OC(=O)NCCc1ccc2ccccc2c1	0.492			0.71 (≈ 2.13 µM)		
Nc1ccc2[nH]c(CCc3ccccc3)nc2c1	1.27	≤ 4.74	28.8	36.3 (≈ 153 µM)		
Cc1c(Nc2ccc3nccnc3n2)cnn1C				31.7 (≈ 132 µM)		
CCn1ncc(-c2cc(C(F)F)nc(NCCCOC)n2)c1C	0.525	43.6	412	44.7 (≈ 137 µM)		
O=C(c1cc(-c2ccc(F)cc2)on1)N1CC[C@H](Oc2ccccc2F)[C@@H](O)CC1	0.861	48.5	600			
Nc1ccccc1OCCn1ccnc1	0.815	7.07	30.6	24.7 (≈ 121 µM)		
O=C(NCCc1ccc2c(c1)OCCO2)c1ccc2ccccc2n1	0.565	123	1950	9.67 (≈ 28.9 µM)		
